The values that follow come from ChEMBL document CHEMBL4406832, “Discovery of novel series of 2-substituted benzo[d]oxazol-5-amine derivatives as multi-target directed ligands for the treatment of Alzheimer's disease” (Eur J Med Chem, 2019).

In general, IC50 refers to the point on the concentration scale where inhibition reaches its midpoint. High values mean weaker potency, low ones greater potency. Broadly, the Papp is the rate of passage across a membrane or cell layer, normalised by area and donor concentration. Low values mean poor permeation, high ones ready permeation.

Data set [1] addresses Acetylcholinesterase (Electrophorus electricus, UniProt O42275). The experiment in a line: Inhibition of electric eel AChE using acetylthiocholine iodide as substrate preincubated with enzyme for 30 mins followed by substrate addition and measured for 1 min by DTNB reagent-based spectrophotometric analysis.
Data set [2] concerns the target Cholinesterase (Equus caballus, UniProt P81908). The experiment in a line: Inhibition of equine serum BuChE using butyrylthiocholine iodide as substrate preincubated for 30 mins followed by substrate addition and measured for 1 min by DTNB reagent-based spectrophotometric analysis.
Data set [3] can be described thus: Selectivity index, ratio of IC50 for equine serum BuChE to IC50 for electric eel AChE.
The nature of data set [4]: Permeability of the compound in pH 7.4 PBS buffer incubated for 18 hrs by PAMPA-BBB assay.

Cholinesterase, sequence (P81908 whole entry): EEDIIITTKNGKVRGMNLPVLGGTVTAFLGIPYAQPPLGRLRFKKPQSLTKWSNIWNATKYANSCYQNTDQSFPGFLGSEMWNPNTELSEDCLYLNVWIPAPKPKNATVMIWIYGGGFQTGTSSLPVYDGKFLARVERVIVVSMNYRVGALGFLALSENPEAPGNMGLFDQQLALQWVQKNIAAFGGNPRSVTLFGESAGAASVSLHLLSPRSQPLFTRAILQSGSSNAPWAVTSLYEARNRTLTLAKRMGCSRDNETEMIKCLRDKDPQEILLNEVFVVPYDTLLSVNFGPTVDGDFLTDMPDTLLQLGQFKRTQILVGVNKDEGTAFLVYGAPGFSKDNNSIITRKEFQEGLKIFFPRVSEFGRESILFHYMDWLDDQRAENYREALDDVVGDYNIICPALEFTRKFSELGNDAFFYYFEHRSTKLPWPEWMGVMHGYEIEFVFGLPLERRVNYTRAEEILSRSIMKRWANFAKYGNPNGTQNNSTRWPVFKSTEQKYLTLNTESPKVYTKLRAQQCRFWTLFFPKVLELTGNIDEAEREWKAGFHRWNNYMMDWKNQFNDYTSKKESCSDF
Acetylcholinesterase, sequence (O42275 whole entry): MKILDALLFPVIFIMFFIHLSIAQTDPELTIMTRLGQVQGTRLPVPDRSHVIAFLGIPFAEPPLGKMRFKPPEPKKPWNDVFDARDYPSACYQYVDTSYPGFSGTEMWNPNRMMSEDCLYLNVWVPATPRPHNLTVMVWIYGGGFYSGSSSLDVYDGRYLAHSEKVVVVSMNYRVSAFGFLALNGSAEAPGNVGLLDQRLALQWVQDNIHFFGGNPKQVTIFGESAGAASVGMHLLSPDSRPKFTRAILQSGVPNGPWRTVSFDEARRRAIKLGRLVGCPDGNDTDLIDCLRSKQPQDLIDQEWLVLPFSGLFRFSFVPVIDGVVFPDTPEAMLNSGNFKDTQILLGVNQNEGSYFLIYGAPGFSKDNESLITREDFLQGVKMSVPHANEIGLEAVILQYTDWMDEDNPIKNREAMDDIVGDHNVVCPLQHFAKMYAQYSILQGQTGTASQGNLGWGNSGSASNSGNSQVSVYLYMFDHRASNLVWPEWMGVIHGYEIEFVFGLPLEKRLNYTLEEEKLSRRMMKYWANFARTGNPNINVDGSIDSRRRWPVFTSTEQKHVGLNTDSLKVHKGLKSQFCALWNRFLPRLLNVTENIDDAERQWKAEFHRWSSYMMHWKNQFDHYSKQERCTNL

As for `Nc1ccc2oc(NC3CCN(Cc4ccccc4)CC3)nc2c1`, the IC50 in data set [1] was determined as 559 nM; in data set [2], 2270 nM. For the same molecule, in data set [3], the Ratio IC50 was found to be 4. Also, the Papp at 18 h in data set [4] is 9.47 ×10⁻⁶ cm/s.

Regarding `Nc1ccc2oc(N3CCN(c4ccc(F)cc4)CC3)nc2c1`, the IC50 was found to be 1440 nM in data set [1] and 6480 nM in data set [2]. Moreover, the Ratio IC50 in data set [3] amounted to 4.4. In data set [4], this molecule gave a Papp at 18 h of 10.7 ×10⁻⁶ cm/s.

For the molecule `Cc1ccc(CN2CCN(c3nc4cc(N)ccc4o3)CC2)cc1`, the IC50 in data set [1] amounted to 807 nM; in data set [2], 5190 nM. In addition, the Ratio IC50 in data set [3] turned out to be 6.4. Also, the Papp at 18 h in data set [4] came out at 10.6 ×10⁻⁶ cm/s.

Consider `Nc1ccc2oc(N3CCN(C(=O)c4cccc(Br)c4)CC3)nc2c1`, for which the results for the IC50 in data set [1] and in data set [2] were 163 nM and 2680 nM, respectively. Moreover, in data set [3], the Ratio IC50 came to 16.4. The molecule further yielded a Papp at 18 h in data set [4] of 10.5 ×10⁻⁶ cm/s.

Regarding `Nc1ccc2oc(N3CCN(C(=O)c4ccc5c(c4)OCO5)CC3)nc2c1`, the IC50 in data set [1] is 616 nM; in data set [2], 1520 nM. In addition, the Ratio IC50 in data set [3] turned out to be 2.4. In data set [4], the Papp at 18 h came out at 9.64 ×10⁻⁶ cm/s.

In the case of `CC(C)c1ccc(CN2CCN(c3nc4cc(N)ccc4o3)CC2)cc1`, the IC50 in data set [1] was 943 nM; in data set [2], 11300 nM. Further, in data set [3], the Ratio IC50 stood at 11.9. The same molecule displayed a Papp at 18 h in data set [4] of 11.6 ×10⁻⁶ cm/s.

In the case of `Nc1ccc2oc(N3CCN(Cc4ccccc4)CC3)nc2c1`, the IC50 in data set [1] worked out at 921 nM; in data set [2], 6760 nM. The Ratio IC50 in data set [3] is 7.3. In addition, in data set [4], the Papp at 18 h came out at 10.2 ×10⁻⁶ cm/s.

For the molecule `Nc1ccc2oc(N3CCN(c4ccccn4)CC3)nc2c1`, the IC50 in data set [1] came out at 3310 nM; in data set [2], 15100 nM. The Ratio IC50 in data set [3] came out at 4.5. Also, in data set [4], the Papp at 18 h stood at 9.44 ×10⁻⁶ cm/s.

Regarding `Nc1ccc2oc(N3CCN(C(=O)c4ccccc4Cl)CC3)nc2c1`, the values for the IC50 in data set [1] and in data set [2] were 559 nM and 4860 nM, respectively. The Ratio IC50 in data set [3] came to 8.6. In addition, the Papp at 18 h in data set [4] was found to be 10.3 ×10⁻⁶ cm/s.

For the molecule `Nc1ccc2oc(N3CCN(C(=O)c4ccc(F)cc4)CC3)nc2c1`, the IC50 in data set [1] turned out to be 73 nM; in data set [2] it was 817 nM. Moreover, the Ratio IC50 in data set [3] amounted to 11.1. Moreover, the Papp at 18 h in data set [4] worked out at 9.67 ×10⁻⁶ cm/s.

Take `Nc1ccc2oc(N3CCN(c4ccccc4)CC3)nc2c1`: the IC50 worked out at 2090 nM in data set [1] and 16800 nM in data set [2]. Besides, the Ratio IC50 in data set [3] amounted to 8. For the same molecule, the Papp at 18 h in data set [4] came out at 10.3 ×10⁻⁶ cm/s.

As for `C#CCN(Cc1ccc2cccc(O)c2n1)C(C#N)CCC1CCN(Cc2ccccc2)CC1` (stereo unspecified), the IC50 in data set [1] was determined as 29 nM.

Take `Nc1ccc2oc(N3CCN(Cc4ccc(F)cc4)CC3)nc2c1`: the IC50 in data set [1] is 525 nM; in data set [2] it was 3110 nM. The Ratio IC50 in data set [3] amounted to 5.9. The apparent permeability coefficient (Papp) at 18 h in data set [4] is 10.5 ×10⁻⁶ cm/s.

Regarding `Nc1ccc2oc(N3CCN(C(=O)c4ccccc4Br)CC3)nc2c1`, the IC50 in data set [1] is 445 nM; in data set [2], 6190 nM. In addition, the Ratio IC50 in data set [3] came to 13.9. The Papp at 18 h in data set [4] was 10.6 ×10⁻⁶ cm/s.

With `Nc1ccc2oc(N3CCOCC3)nc2c1`, the IC50 came out at 7030 nM in data set [1] and 32300 nM in data set [2]. Besides, the Ratio IC50 in data set [3] was determined as 4.5. The molecule also came in with an apparent permeability (Papp) at 18 h in data set [4] of 7.44 ×10⁻⁶ cm/s.

In the case of `Nc1ccc2oc(N3CCN(c4ccc(Br)cc4)CC3)nc2c1`, the IC50 stood at 1050 nM in data set [1] and 8760 nM in data set [2]. Also, the Ratio IC50 in data set [3] was 8.3. For the same molecule, the Papp at 18 h in data set [4] was found to be 10.5 ×10⁻⁶ cm/s.

With `Nc1ccc2oc(N3CCCCC3)nc2c1`, the IC50 in data set [1] is 5680 nM; in data set [2] it was 24200 nM.

For `COc1cccc(C(=O)N2CCN(c3nc4cc(N)ccc4o3)CC2)c1`, the IC50 in data set [1] was determined as 550 nM; in data set [2], 11700 nM. In addition, the Ratio IC50 in data set [3] was 21.3. This molecule yielded a Papp at 18 h in data set [4] of 9.54 ×10⁻⁶ cm/s.

In the case of `Nc1ccc2oc(N3CCN(C(=O)c4ccccc4)CC3)nc2c1`, the IC50 in data set [1] worked out at 801 nM; in data set [2] it was 6050 nM.

As to `Nc1ccc2oc(N3CCN(C(=O)c4cccc(F)c4)CC3)nc2c1`, the IC50 in data set [1] was found to be 231 nM; in data set [2], 5540 nM. Besides, the Ratio IC50 in data set [3] turned out to be 23.9. Also, the Papp at 18 h in data set [4] stood at 9.51 ×10⁻⁶ cm/s.

In the case of `COc1ccc(Cl)cc1C(=O)N1CCN(c2nc3cc(N)ccc3o2)CC1`, the IC50 in data set [1] is 321 nM; in data set [2], 1360 nM. Further, the Ratio IC50 in data set [3] worked out at 4.2. In data set [4], this molecule displayed a Papp at 18 h of 8.82 ×10⁻⁶ cm/s.

As to `COc1ccccc1C(=O)N1CCN(c2nc3cc(N)ccc3o2)CC1`, the IC50 in data set [1] was found to be 927 nM; in data set [2], 7380 nM. In addition, the Ratio IC50 in data set [3] was 7.9. In data set [4], this molecule displayed a Papp at 18 h of 9.21 ×10⁻⁶ cm/s.

Consider `COc1ccc(N2CCN(c3nc4cc(N)ccc4o3)CC2)cc1`, for which the values for the concentration for half-maximal inhibition (IC50) in data set [1] and in data set [2] were 2100 nM and 13000 nM, respectively. Also, in data set [3], the Ratio IC50 stood at 6.1. The same molecule returned an apparent permeability coefficient (Papp) at 18 h in data set [4] of 10.5 ×10⁻⁶ cm/s.

Regarding `COc1ccc(C(=O)N2CCN(c3nc4cc(N)ccc4o3)CC2)cc1`, the IC50 in data set [1] is 275 nM; in data set [2], 7330 nM. Besides, the Ratio IC50 in data set [3] was 26.6. Moreover, in data set [4], the apparent permeability (Papp) at 18 h came to 9.71 ×10⁻⁶ cm/s.

`COc1cc2c(cc1OC)C(=O)C(Cc1cc[n+](Cc3ccccc3)cc1Br)C2` (stereo unspecified) registered an IC50 in data set [1] of 0.36 nM.

Turning to `Nc1ccc2oc(N3CCN(Cc4ccc(Cl)cc4)CC3)nc2c1`, the IC50 in data set [1] worked out at 747 nM; in data set [2], 3850 nM. Further, the Ratio IC50 in data set [3] turned out to be 5.1. This molecule also had a Papp at 18 h in data set [4] of 10.7 ×10⁻⁶ cm/s.

On to `Nc1ccc2oc(N3CCN(C(=O)c4cccc(Cl)c4)CC3)nc2c1`, for which the IC50 in data set [1] was 241 nM; in data set [2], 4560 nM. For the same molecule, the Ratio IC50 in data set [3] was found to be 18.9. Also, in data set [4], the Papp at 18 h worked out at 10.4 ×10⁻⁶ cm/s.

Consider `Nc1ccc2oc(N3CCN(c4ccc(Cl)cc4)CC3)nc2c1`, for which the 50% inhibitory concentration (IC50) was 1960 nM in data set [1] and 11100 nM in data set [2]. Further, the Ratio IC50 in data set [3] turned out to be 5.6. Also, the Papp at 18 h in data set [4] turned out to be 10.6 ×10⁻⁶ cm/s.

Turning to `Nc1ccc2oc(N3CCN(CCc4ccccc4)CC3)nc2c1`, the IC50 in data set [1] stood at 393 nM; in data set [2], 957 nM. Also, the Ratio IC50 in data set [3] was determined as 2.4. In data set [4], this molecule registered a Papp at 18 h of 13.4 ×10⁻⁶ cm/s.

`Cc1ccc(N2CCN(c3nc4cc(N)ccc4o3)CC2)cc1`: the IC50 came out at 4180 nM in data set [1] and 9010 nM in data set [2]. Moreover, the Ratio IC50 in data set [3] was 2.1. The Papp at 18 h in data set [4] came to 10.4 ×10⁻⁶ cm/s.

With `Nc1ccc2oc(N3CCN(C(=O)c4ccccc4F)CC3)nc2c1`, the IC50 was determined as 337 nM in data set [1] and 8390 nM in data set [2]. Also, in data set [3], the Ratio IC50 was 24.9. Moreover, the Papp at 18 h in data set [4] was determined as 9.55 ×10⁻⁶ cm/s.

For `Nc1ccc2oc(N3CCN(C(=O)c4ccc(Cl)cc4)CC3)nc2c1`, the IC50 is 109 nM in data set [1] and 3320 nM in data set [2]. Besides, in data set [3], the Ratio IC50 was 30.4. In data set [4], this molecule showed a Papp at 18 h of 10.4 ×10⁻⁶ cm/s.

Consider `COc1ccc(CN2CCN(c3nc4cc(N)ccc4o3)CC2)cc1`, for which the IC50 in data set [1] came out at 748 nM; in data set [2] it was 6330 nM. In addition, the Ratio IC50 in data set [3] turned out to be 8.4. For the same molecule, the Papp at 18 h in data set [4] is 9.49 ×10⁻⁶ cm/s.

In the case of `Nc1ccc2oc(N3CCN(Cc4ccc(Br)cc4)CC3)nc2c1`, the IC50 in data set [1] worked out at 379 nM; in data set [2], 2970 nM. Moreover, the Ratio IC50 in data set [3] was determined as 7.8. Also, in data set [4], the apparent permeability coefficient (Papp) at 18 h was determined as 11.3 ×10⁻⁶ cm/s.
